A short description of the series: solubility of the photoinitiator. It counts as physicochemical. The text has this:
The bisacylphosphine oxides of the formula (I) absorb in the UV region and also show an absorption greater than 400 nm, so that their photolysis and radical formation can be induced by irradiation with halogen lamps customary in the dental field or also with LED lamps. The bisacylphosphine oxides of the formula (I) contain polymerizable groups and can be incorporated into polymers e.g. by copolymerization. Moreover, the bisacylphosphine oxides according to the invention are very well soluble in polar organic solvents such as acetone, ethanol, acetonitrile or tetrahydrofuran (THF) or their mixtures with water, i.e. the solubility is at least 0.01 mmol/g. It is particularly advantageous that the bisacylphosphine oxides according to the invention show a better storage stability compared with known bisacrylphosphine oxides. The compounds are characterized by a high hydrolysis stability, i.e. they are not more than 15% hydrolyzed in a mixture of […]:H2O (60:40) at 42° C. in 60 days.
To prepare the model formulation, 0.022 mmol of the photoinitiator described in Example 1 were weighed into an analysis tube and made up to 1.00 g with the above composition and dissolved accompanied by slight heating. […]

As to `C=CCOCCOCc1c(C)cc(C)c(C(=O)P(=O)(C(=O)c2c(C)cc(C)c(COCCOCC=C)c2C)c2ccccc2)c1C` [BAPOmAOEM], the “solubility compared with Irgacure 819” value is recorded as “better solubility”.

As for `Cc1cc(C)c(C(=O)P(=O)(C(=O)c2c(C)cc(C)cc2C)c2ccccc2)c(C)c1` [Irgacure819, bis-(2,4,6-trimethylbenzoyl)-phenylphosphine oxide], where the note is “in the primer composition (DEBAMP/DHPAE/water)”, the maximum solubility entry is given as “^5Irgacure 819 was used due to its low solubility in a concentration of 0.005 mmol/g (= maximum solubility)”.

Source of the values: patent US7714034B2, “Photopolymerizable dental materials with bisacylphosphine oxides as initiators” (Ivoclar Vivadent AG, priority 2006, dated 2010).
